Results from PubChem BioAssay AID2060616 (Molecular Pharmacology Branch, DTP, NCI, 2025).
pIC50: −log10 of the molar value.

Test system: 377384-186-R-J1-PDC complex spheroid viability
Assay: Anticancer human tumor 377384-186-R-J1-PDC patient-derived pancreatic carcinoma cell line growth inhibition [CLK]
Conditions: for pIC50: curve of first compound; for viability, T/C: stronger effect = lower value
How it was run: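 Multi-cell-type spheroids combined patient-derived tumor cells with HUVEC endothelial cells and human mesenchymal stem cells. Paired agents were dosed in half-log steps down from about clinical Cmax, or from 10 microM where Cmax was unknown.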
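Further: spheroids exposed to agents for 7 days before reading.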
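Wherever viability, T/C is given: luminescence signal used as a stand-in for viable cells.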

Q: Which results are given for `CC(=O)O[C@H]1C(=O)[C@@]2(C)[C@H]([C@H](OC(=O)c3ccccc3)[C@]3(O)C[C@H](OC(=O)[C@H](O)[C@@H](NC(=O)c4ccccc4)c4ccccc4)C(C)=C1C3(C)C)[C@]1(OC(C)=O)CO[C@@H]1C[C@@H]2O` + CNC(=O)c1ccc(Nc2nc(OC3CCCC3)c3c(-c4ccc5nc(C)oc5c4)c[nH]c3n2)c(OC)c1?
A: pIC50 (second compound 0.0316 µM): > 7.50; pIC50 (second compound 0.1 µM): > 7.50; pIC50 (second compound 0.316 µM): > 7.50; pIC50 (second compound 1 µM): > 7.50; pIC50 (second compound 3.16 µM): > 7.50; pIC50 (second compound 10 µM): > 7.50; viability, T/C (second compound 0.0316 µM, first compound 0.0316 µM): 11.1%; viability, T/C (second compound 0.0316 µM, first compound 0.1 µM): 9.78%; viability, T/C (second compound 0.0316 µM, first compound 0.316 µM): 11.1%; viability, T/C (second compound 0.0316 µM, first compound 1 µM): 10.2%; viability, T/C (second compound 0.0316 µM, first compound 3.16 µM): 12.7%; viability, T/C (second compound 0.0316 µM, first compound 10 µM): 20.1%; viability, T/C (second compound 0.1 µM, first compound 0.0316 µM): 14.4%; viability, T/C (second compound 0.1 µM, first compound 0.1 µM): 16.9%; viability, T/C (second compound 0.1 µM, first compound 0.316 µM): 20.5%; viability, T/C (second compound 0.1 µM, first compound 1 µM): 21.8%; viability, T/C (second compound 0.1 µM, first compound 3.16 µM): 28.9%; viability, T/C (second compound 0.1 µM, first compound 10 µM): 35.2%; viability, T/C (second compound 0.316 µM, first compound 0.0316 µM): 20%; viability, T/C (second compound 0.316 µM, first compound 0.1 µM): 21.2%; viability, T/C (second compound 0.316 µM, first compound 0.316 µM): 29%; viability, T/C (second compound 0.316 µM, first compound 1 µM): 36.6%; viability, T/C (second compound 0.316 µM, first compound 3.16 µM): 42.3%; viability, T/C (second compound 0.316 µM, first compound 10 µM): 47.3%; viability, T/C (second compound 1 µM, first compound 0.0316 µM): 21.7%; viability, T/C (second compound 1 µM, first compound 0.1 µM): 22.3%; viability, T/C (second compound 1 µM, first compound 0.316 µM): 29.6%; viability, T/C (second compound 1 µM, first compound 1 µM): 37.9%; viability, T/C (second compound 1 µM, first compound 3.16 µM): 40.5%; viability, T/C (second compound 1 µM, first compound 10 µM): 49.1%; viability, T/C (second compound 3.16 µM, first compound 0.0316 µM): 18%; viability, T/C (second compound 3.16 µM, first compound 0.1 µM): 21.7%; viability, T/C (second compound 3.16 µM, first compound 0.316 µM): 27.5%; viability, T/C (second compound 3.16 µM, first compound 1 µM): 34.4%; viability, T/C (second compound 3.16 µM, first compound 3.16 µM): 38.6%; viability, T/C (second compound 3.16 µM, first compound 10 µM): 45.5%; viability, T/C (second compound 10 µM, first compound 0.0316 µM): 17.7%; viability, T/C (second compound 10 µM, first compound 0.1 µM): 22.3%; viability, T/C (second compound 10 µM, first compound 0.316 µM): 29.7%; viability, T/C (second compound 10 µM, first compound 1 µM): 37.2%; viability, T/C (second compound 10 µM, first compound 3.16 µM): 38.7%; viability, T/C (second compound 10 µM, first compound 10 µM): 42.8%
